Test results reported in ChEMBL document CHEMBL3994677, “Discovery of GSK2193874: An Orally Active, Potent, and Selective Blocker of Transient Receptor Potential Vanilloid 4” (ACS Med Chem Lett, 2017).
Blank lines part the entries; values can stand above or below the compound they belong to. The source made the active and inactive calls. The rule behind the calls is not given here.

What was measured:
[1] = target: T1, Transient receptor potential cation channel subfamily V member 4 (Homo sapiens, UniProt Q9HBA0); experiment: Antagonist activity at human TRPV4 expressed in HEK293 cells assessed as inhibition of GSK634775A-induced calcium influx preincubated for 10 mins followed by GSK634775A addition by […] dye based FLIPR assay; format: cell-based
T1 sequence (Q9HBA0 whole entry): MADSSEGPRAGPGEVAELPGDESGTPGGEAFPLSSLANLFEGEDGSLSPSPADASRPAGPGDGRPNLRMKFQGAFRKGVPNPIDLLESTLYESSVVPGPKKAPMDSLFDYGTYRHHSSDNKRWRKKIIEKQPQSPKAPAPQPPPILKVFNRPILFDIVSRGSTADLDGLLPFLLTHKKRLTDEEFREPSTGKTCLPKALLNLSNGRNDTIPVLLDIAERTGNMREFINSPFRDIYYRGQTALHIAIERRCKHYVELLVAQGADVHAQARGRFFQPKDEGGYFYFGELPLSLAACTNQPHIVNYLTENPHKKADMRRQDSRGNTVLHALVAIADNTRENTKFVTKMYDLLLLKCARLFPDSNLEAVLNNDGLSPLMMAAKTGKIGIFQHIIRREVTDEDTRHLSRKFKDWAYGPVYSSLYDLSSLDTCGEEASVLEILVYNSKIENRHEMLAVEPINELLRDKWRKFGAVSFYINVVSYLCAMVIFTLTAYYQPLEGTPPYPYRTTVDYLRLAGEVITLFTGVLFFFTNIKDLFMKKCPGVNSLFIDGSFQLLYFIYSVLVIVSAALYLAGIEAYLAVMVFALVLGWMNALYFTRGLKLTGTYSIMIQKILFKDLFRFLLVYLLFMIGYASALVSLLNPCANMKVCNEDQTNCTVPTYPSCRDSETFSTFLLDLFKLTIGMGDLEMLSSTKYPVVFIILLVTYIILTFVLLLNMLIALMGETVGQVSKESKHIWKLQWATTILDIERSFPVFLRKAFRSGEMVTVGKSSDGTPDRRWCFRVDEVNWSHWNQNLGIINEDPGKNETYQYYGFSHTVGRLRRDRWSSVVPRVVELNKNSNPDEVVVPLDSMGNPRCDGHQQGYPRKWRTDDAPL

[2] = target: T2, Transient receptor potential cation channel subfamily V member 4 (Rattus norvegicus, UniProt Q9ERZ8); experiment: Antagonist activity at rat TRPV4 expressed in HEK293 cells assessed as inhibition of GSK634775A-induced calcium influx preincubated for 10 mins followed by GSK634775A addition by […] dye based FLIPR assay; format: cell-based
T2 sequence (Q9ERZ8 whole entry): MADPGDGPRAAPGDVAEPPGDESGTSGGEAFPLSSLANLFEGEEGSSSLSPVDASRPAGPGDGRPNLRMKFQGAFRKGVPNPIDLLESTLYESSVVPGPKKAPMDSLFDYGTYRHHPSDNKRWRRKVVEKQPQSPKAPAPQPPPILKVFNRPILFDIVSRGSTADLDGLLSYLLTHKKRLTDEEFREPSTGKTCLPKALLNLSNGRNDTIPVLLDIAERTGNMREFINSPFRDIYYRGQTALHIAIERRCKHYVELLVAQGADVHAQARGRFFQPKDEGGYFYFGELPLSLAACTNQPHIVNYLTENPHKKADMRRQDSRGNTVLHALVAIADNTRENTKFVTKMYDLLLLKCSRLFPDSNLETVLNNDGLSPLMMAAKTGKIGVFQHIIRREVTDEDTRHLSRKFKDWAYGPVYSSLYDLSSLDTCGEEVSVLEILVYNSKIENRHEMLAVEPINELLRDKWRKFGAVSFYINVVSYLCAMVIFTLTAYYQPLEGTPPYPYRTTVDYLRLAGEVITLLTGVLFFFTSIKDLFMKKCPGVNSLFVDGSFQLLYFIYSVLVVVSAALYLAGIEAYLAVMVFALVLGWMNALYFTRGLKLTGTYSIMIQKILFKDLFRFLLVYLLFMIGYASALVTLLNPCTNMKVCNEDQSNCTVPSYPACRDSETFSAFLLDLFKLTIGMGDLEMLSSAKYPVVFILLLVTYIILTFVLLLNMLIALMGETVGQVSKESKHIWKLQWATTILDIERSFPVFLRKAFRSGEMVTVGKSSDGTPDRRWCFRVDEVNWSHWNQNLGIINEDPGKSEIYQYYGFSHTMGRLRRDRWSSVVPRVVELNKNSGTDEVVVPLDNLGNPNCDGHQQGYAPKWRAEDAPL

Substance-K receptor = Substance-K receptor (Homo sapiens, UniProt P21452); experiment: Inhibition of NK2 receptor (unknown origin) by FLIPR assay
Substance-K receptor, sequence (P21452 whole entry): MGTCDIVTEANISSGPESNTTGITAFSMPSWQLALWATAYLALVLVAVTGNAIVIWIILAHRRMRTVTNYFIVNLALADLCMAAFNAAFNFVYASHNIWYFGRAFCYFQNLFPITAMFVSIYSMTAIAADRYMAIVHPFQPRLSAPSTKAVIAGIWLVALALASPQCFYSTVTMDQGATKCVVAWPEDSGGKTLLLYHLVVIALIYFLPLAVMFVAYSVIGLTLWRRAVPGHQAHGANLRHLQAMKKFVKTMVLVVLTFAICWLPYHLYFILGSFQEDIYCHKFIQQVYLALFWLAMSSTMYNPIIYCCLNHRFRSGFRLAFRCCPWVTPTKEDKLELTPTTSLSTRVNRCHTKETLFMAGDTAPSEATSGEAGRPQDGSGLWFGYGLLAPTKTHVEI

Neuromedin-K receptor = Neuromedin-K receptor (Homo sapiens, UniProt P29371); experiment: Inhibition of NK3 receptor (unknown origin) by FLIPR assay
Neuromedin-K receptor, sequence (P29371 whole entry): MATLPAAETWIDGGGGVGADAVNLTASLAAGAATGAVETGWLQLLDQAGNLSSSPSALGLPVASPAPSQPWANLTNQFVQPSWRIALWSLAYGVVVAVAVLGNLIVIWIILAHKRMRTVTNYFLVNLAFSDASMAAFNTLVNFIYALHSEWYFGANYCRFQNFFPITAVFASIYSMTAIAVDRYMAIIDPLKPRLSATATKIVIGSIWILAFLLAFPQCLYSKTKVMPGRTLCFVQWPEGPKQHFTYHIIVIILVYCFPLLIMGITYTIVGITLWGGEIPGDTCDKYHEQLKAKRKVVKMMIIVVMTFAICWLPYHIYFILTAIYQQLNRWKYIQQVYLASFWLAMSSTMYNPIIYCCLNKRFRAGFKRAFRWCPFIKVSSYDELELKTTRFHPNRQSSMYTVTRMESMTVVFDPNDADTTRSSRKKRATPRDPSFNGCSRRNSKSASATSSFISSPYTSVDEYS

[3] = Clearance in Sprague-Dawley rat; format: ADME; settings: in vivo
[4] = Oral bioavailability in Sprague-Dawley rat; format: ADME, organism-based; settings: in vivo
Rattus norvegicus = experiment: Dose normalized AUC in po dosed Sprague-Dawley rat; format: ADME, organism-based; settings: in vivo
[5] = target: Voltage-gated inwardly rectifying potassium channel KCNH2 (Homo sapiens, UniProt Q12809); experiment: Inhibition of human ERG by patchXpress electrophysiology assay
[6] = target: Voltage-dependent L-type calcium channel subunit alpha-1C (Homo sapiens, UniProt Q13936); experiment: Inhibition of Cav1.2 (unknown origin) by patchXpress electrophysiology assay
[7] = target: Sodium channel protein type 5 subunit alpha (Homo sapiens, UniProt Q14524); experiment: Inhibition of Nav1.5 (unknown origin) by ionworks quattro electrophysiology assay
Canis familiaris [8] = experiment: Toxicity in Beagle dog assessed as QTc prolongation at 1 to 3 mg/kg, iv administered as infusion; format: organism-based, Canis lupus familiaris; settings: in vivo
Canis familiaris [9] = experiment: Toxicity in Beagle dog assessed as reduction in BP at 3 mg/kg, iv administered as infusion; format: organism-based, Canis lupus familiaris; settings: in vivo
Canis familiaris [10] = experiment: Toxicity in Beagle dog assessed as reduction in heart rate at 3 mg/kg, iv administered as infusion; format: organism-based, Canis lupus familiaris; settings: in vivo
Canis familiaris [11] = experiment: Toxicity in Beagle dog assessed as effect on cardiac output at 3 mg/kg, iv administered as infusion; format: organism-based, Canis lupus familiaris; settings: in vivo
Canis familiaris [12] = experiment: Toxicity in Beagle dog assessed as effect on LV function at 3 mg/kg, iv administered as infusion; format: organism-based, Canis lupus familiaris; settings: in vivo
[13] = Cmax in Beagle dog at 3 mg/kg, iv administered as infusion; format: ADME, organism-based, Canis lupus familiaris; design: dose 3 mg/kg, route intravenous; settings: in vivo
Canis familiaris [14] = experiment: Toxicity in Beagle dog assessed as hemodynamic effect at 1 mg/kg, iv administered as infusion; format: organism-based, Canis lupus familiaris; settings: in vivo
[15] = Cmax in Beagle dog at 1 mg/kg, iv administered as infusion; format: ADME, organism-based, Canis lupus familiaris; design: dose 1 mg/kg, route intravenous; settings: in vivo
Plasma = experiment: Terminal plasma concentration in TRPV4 knockout Balb/c mouse at 30 mg/kg, iv administered as infusion; format: ADME, organism-based; settings: in vivo, read-out: Cp(T)
Mus musculus [16] = experiment: Toxicity in TRPV4 knockout Balb/c mouse assessed as reduction in BP at 30 mg/kg, iv administered as infusion; format: organism-based; settings: in vivo
Mus musculus [17] = experiment: Toxicity in TRPV4 knockout Balb/c mouse assessed as reduction in heart rate at 30 mg/kg, iv administered as infusion; format: organism-based; settings: in vivo
[18] = target: T3, Voltage-dependent L-type calcium channel subunit alpha-1C (Cavia porcellus, UniProt O35505); experiment: Inhibition of Cav1.2 in guinea pig ventricular myocytes assessed as decrease in current amplitude at 0.1 Hz by patch clamp method; format: cell-based
T3 sequence (O35505 whole entry): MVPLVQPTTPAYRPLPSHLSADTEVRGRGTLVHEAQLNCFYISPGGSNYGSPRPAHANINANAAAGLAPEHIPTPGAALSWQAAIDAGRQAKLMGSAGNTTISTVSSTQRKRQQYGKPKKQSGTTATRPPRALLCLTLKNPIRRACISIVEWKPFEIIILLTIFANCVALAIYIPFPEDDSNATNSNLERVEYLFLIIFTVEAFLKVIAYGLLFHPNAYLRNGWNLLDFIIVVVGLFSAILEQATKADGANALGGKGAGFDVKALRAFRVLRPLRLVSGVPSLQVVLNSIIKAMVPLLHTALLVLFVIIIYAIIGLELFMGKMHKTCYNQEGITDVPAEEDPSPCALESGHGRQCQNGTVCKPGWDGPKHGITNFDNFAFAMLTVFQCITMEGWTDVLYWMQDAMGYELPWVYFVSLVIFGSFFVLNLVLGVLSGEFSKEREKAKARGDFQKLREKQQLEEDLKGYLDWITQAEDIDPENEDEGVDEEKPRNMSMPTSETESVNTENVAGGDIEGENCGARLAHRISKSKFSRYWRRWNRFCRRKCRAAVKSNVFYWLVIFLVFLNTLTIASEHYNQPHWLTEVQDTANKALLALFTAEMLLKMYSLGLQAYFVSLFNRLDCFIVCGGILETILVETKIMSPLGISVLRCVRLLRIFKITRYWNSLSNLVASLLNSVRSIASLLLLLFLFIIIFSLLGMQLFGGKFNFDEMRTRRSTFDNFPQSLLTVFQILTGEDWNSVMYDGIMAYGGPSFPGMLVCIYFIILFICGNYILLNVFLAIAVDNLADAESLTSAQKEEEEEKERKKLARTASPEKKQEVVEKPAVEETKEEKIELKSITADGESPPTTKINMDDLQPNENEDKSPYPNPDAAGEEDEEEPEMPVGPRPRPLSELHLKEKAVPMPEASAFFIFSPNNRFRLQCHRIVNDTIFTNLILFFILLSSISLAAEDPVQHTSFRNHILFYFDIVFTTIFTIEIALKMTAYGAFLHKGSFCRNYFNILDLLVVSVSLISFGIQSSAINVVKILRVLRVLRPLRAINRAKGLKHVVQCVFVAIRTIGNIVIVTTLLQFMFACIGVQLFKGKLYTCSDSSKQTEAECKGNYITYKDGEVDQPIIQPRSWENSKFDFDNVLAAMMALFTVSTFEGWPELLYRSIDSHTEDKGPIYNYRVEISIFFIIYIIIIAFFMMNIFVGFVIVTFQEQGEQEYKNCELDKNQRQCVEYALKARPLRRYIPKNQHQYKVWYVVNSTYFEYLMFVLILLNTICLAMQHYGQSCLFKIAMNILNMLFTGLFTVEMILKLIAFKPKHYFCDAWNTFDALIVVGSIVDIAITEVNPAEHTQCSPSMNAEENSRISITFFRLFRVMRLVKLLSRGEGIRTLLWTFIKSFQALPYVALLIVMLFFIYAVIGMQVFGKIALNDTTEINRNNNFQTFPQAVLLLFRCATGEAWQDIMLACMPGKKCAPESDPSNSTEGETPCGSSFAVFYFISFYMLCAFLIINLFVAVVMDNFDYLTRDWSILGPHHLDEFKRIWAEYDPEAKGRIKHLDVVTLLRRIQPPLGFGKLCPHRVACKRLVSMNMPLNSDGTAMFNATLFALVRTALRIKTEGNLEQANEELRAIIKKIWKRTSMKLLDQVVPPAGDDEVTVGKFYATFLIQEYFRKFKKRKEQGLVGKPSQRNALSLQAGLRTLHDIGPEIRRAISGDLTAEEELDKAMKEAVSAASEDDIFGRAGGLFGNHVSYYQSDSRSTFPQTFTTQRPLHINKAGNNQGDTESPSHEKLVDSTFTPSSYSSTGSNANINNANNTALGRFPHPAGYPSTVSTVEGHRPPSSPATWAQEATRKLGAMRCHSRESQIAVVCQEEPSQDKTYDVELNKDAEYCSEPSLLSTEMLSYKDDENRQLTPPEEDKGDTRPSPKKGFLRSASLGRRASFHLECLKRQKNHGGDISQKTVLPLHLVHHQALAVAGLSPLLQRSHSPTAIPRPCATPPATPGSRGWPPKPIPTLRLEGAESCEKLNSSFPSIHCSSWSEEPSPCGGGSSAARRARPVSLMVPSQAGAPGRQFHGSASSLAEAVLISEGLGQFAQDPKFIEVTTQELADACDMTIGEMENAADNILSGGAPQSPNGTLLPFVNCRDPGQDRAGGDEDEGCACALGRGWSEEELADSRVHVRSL

[19] = target: T3, Voltage-dependent L-type calcium channel subunit alpha-1C; experiment: Inhibition of Cav1.2 in guinea pig ventricular myocytes assessed as decrease in current amplitude at 2 Hz by patch clamp method; format: cell-based
[20] = Cardiotoxicity in rabbit ventricular wedge; format: toxicity, Oryctolagus cuniculus
[21] = target: Voltage-dependent N-type calcium channel subunit alpha-1B (Homo sapiens) (UniProt Q00975); experiment: Inhibition of Cav2.2 (unknown origin)
[22] = target: Voltage-dependent T-type calcium channel subunit alpha-1H (Homo sapiens) (UniProt O95180); experiment: Inhibition of Cav3.2 (unknown origin)
Aorta = experiment: Toxicity in mouse isolated aorta assessed as effect on contractility; format: tissue-based; settings: in vivo
[23] = Toxicity in mouse isolated right atria assessed as effect on contractility; design: species or system Right cardiac atrium; settings: in vivo
Canis familiaris [24] = experiment: Unbound plasma concentration in Beagle dog at 3 mg/kg, iv administered as infusion; settings: in vivo
Canis familiaris [25] = experiment: Unbound plasma concentration in Beagle dog at 1 mg/kg, iv administered as infusion; settings: in vivo
[26] = target: T2, Transient receptor potential cation channel subfamily V member 4; experiment: Antagonist activity at rat TRPV4 expressed in HEK293 cells assessed as inhibition of 4alpha-PDD-induced current at holding potential of -40 mV by Whole cell patch-clamp method; format: cell-based
[27] = target: Transient receptor potential cation channel subfamily V member 4 (Mus musculus, UniProt Q9EPK8); experiment: Antagonist activity at mouse TRPV4 expressed in HEK293 cells assessed as inhibition of 4alpha-PDD-induced current at holding potential of -40 mV by Whole cell patch-clamp method; format: cell-based
[28] = target: T1, Transient receptor potential cation channel subfamily V member 4
Description: Antagonist activity at human TRPV4 expressed in HEK293 cells assessed as inhibition of 4alpha-PDD-induced current at holding potential of -40 mV by Whole cell patch-clamp method

[29] = target: Nuclear receptor subfamily 1 group I member 2 (Homo sapiens, UniProt O75469); experiment: Activation of PXR (unknown origin); format: ADME; settings: human
[30] = Clearance in iv dosed rat; format: ADME, organism-based; settings: in vivo
[31] = Half life in po dosed rat; format: ADME, organism-based; settings: in vivo
[32] = Oral bioavailability in rat; format: ADME, organism-based; settings: in vivo
[33] = Clearance in iv dosed dog; format: ADME, organism-based, Canis lupus familiaris; settings: in vivo
[34] = Half life in po dosed dog; format: ADME, organism-based, Canis lupus familiaris; settings: in vivo
[35] = Oral bioavailability in dog; format: ADME, organism-based, Canis lupus familiaris; settings: in vivo
[36] = target: Transient receptor potential cation channel subfamily V member 1 (Homo sapiens, UniProt Q8NER1); experiment: Inhibition of TRPV1 (unknown origin)
[37] = target: Transient receptor potential cation channel subfamily A member 1 (Homo sapiens, UniProt O75762); experiment: Inhibition of TRPA1 (unknown origin)
[38] = target: Short transient receptor potential channel 3 (Homo sapiens, UniProt Q13507); experiment: Inhibition of TRPC3 (unknown origin)
[39] = target: Short transient receptor potential channel 6 (Homo sapiens, UniProt Q9Y210); experiment: Inhibition of TRPC6 (unknown origin)
[40] = target: Transient receptor potential cation channel subfamily M member 8 (Homo sapiens, UniProt Q7Z2W7); experiment: Inhibition of TRPM8 (unknown origin)

- IC50 [1]: 1000 nM
- IC50 [2]: 40 nM
Compound: CC(C)(NC(=O)c1c(CN2CCC(N3CCCCC3)CC2)c(-c2cccc(C(F)(F)F)c2)nc2ccccc12)c1ccccc1

- IC50 [1]: 160 nM
- IC50 [2]: 6 nM
Compound: CC[C@H](NC(=O)c1c(CN2CCC(N3CCCCC3)CC2)c(-c2cccc(C(F)(F)F)c2)nc2ccccc12)c1ccccc1

- IC50 [1]: 80 nM
- IC50 [2]: 2.5 nM
- IC50 (Substance-K receptor): 1300 nM
- IC50 (Neuromedin-K receptor): 2500 nM
- clearance [3]: 25 mL/min/kg
- bioavailability [4]: 100%
- AUC/dose (Rattus norvegicus): 0.8 µg·h/mL/mg/kg
- Cmax [13]: 20 µM
- Cmax [15]: 7 µM
- concentration (Plasma): 10 to 11 µM
- inhibition [21]: inactive
- inhibition [22]: inactive
- unbound plasma concentration (Canis familiaris [24]): 0.94 µM
- unbound plasma concentration (Canis familiaris [25]): 0.3 µM
Compound: C[C@H](NC(=O)c1c(CN2CCC(N3CCCCC3)CC2)c(-c2cccc(C(F)(F)F)c2)nc2ccccc12)c1ccccc1
- IC50 [5]: 1200 nM
- IC50 [6]: 4.5 µM
- IC50 [7]: 40 µM
- Activity (Canis familiaris [8]): Toxic
- Activity (Canis familiaris [9]): Toxic
- Activity (Canis familiaris [10]): Toxic
- Activity (Canis familiaris [11]): Toxic
- Activity (Canis familiaris [12]): Toxic
- Activity (Canis familiaris [14]): Non-Toxic
- Activity (Mus musculus [16]): Toxic
- Activity (Mus musculus [17]): Toxic
- IC30 [18]: 1.7 µM
- IC30 [19]: 0.12 µM
- Activity [20]: Non-Toxic
- Activity (Aorta): Non-Toxic
- Activity [23]: Non-Toxic

Compound: Cc1c(C(=O)Nc2cccc(C(F)(F)F)c2)cc(-c2ccccc2)n1CCCN1CCOCC1
- IC50 [26]: 133 nM
- IC50 [27]: 17 nM
- IC50 [28]: 48 nM

- IC50 [1]: 50 nM
- IC50 [2]: 2.5 nM
Compound: O=C(NC1(c2ccccc2)CC1)c1c(CN2CCC(N3CCCCC3)CC2)c(-c2cccc(C(F)(F)F)c2)nc2ccccc12

- IC50 [1]: 2000 nM
- IC50 [2]: 320 nM
- IC50 (Substance-K receptor): 100 nM
- IC50 (Neuromedin-K receptor): 8 nM
- clearance [3]: 52 mL/min/kg
Compound: C[C@H](NC(=O)c1c(CN2CCC(N3CCCCC3)CC2)c(-c2ccccc2)nc2ccccc12)c1ccccc1

- IC50 [1]: 5010 nM
- IC50 [2]: 320 nM
Compound: COc1ccc(-c2nc3ccccc3c(C(=O)N[C@@H](C)c3ccccc3)c2CN2CCC(N3CCCCC3)CC2)cc1

- IC50 [1]: 100 nM
- IC50 [2]: 8 nM
Compound: O=C(N[C@@H](c1ccccc1)C(F)(F)F)c1c(CN2CCC(N3CCCCC3)CC2)c(-c2cccc(C(F)(F)F)c2)nc2ccccc12

- IC50 [1]: 40 nM
- IC50 [2]: 2 nM
- Activity [29]: Not Active
- clearance [30]: 7.3 mL/min/kg
- half-life [31]: 600 min
- bioavailability [32]: 31%
- clearance [33]: 6.9 mL/min/kg
- half-life [34]: 1860 min
- bioavailability [35]: 53%
- IC50 [36]: > 25 µM
- IC50 [37]: > 25 µM
- IC50 [38]: > 25 µM
- IC50 [39]: > 25 µM
- IC50 [40]: > 25 µM
Compound: O=C(NC1(c2ccccc2)CC1)c1c(CN2CCC(N3CCCCC3)CC2)c(-c2cccc(C(F)(F)F)c2)nc2cc(Br)ccc12
- IC30 [18]: 10.5 µM
- IC30 [19]: 10.5 µM

- IC50 [1]: > 25000 nM
- IC50 [2]: > 25000 nM
Compound: C[C@H](NC(=O)c1c(CN2CCC(C3CCCCC3)CC2)c(-c2cccc(C(F)(F)F)c2)nc2ccccc12)c1ccccc1

- IC50 [1]: 2000 nM
- IC50 [2]: 400 nM
Compound: C[C@@H](NC(=O)c1c(CN2CCC(N3CCCCC3)CC2)c(-c2cccc(C(F)(F)F)c2)nc2ccccc12)c1ccccc1

- IC50 [1]: 2510 nM
- IC50 [2]: 320 nM
Compound: C[C@H](NC(=O)c1c(CN2CCC(N(C)C)CC2)c(-c2cccc(C(F)(F)F)c2)nc2ccccc12)c1ccccc1

- IC50 [1]: 50 nM
- IC50 [2]: 4 nM
Compound: COc1ccc2c(C(=O)N[C@H](c3ccccc3)C(F)(F)F)c(CN3CCC(N4CCCCC4)CC3)c(-c3cccc(C(F)(F)F)c3)nc2c1

- IC50 [1]: 2000 nM
- IC50 [2]: 630 nM
Compound: C[C@@H](NC(=O)c1c(CN2CCC(N3CCCCC3)CC2)c(-c2ccccc2)nc2ccccc12)c1ccccc1

- IC50 [1]: 1580 nM
- IC50 [2]: 100 nM
Compound: Cc1ccc(-c2nc3ccccc3c(C(=O)N[C@@H](C)c3ccccc3)c2CN2CCC(N3CCCCC3)CC2)cc1

- IC50 [1]: 400 nM
- IC50 [2]: 16 nM
Compound: C[C@H](NC(=O)c1c(CN2CCC(N3CCCCC3)CC2)c(-c2ccc(C(F)(F)F)cc2)nc2ccccc12)c1ccccc1
